Assay results published in patent publication US20240409602A1, “PEPTIDE MODULATORS OF NEUROLIGIN 4-NEUREXIN 1-BETA AXIS FOR TREATMENT OF LIVER DISORDERS” (HADASIT MEDICAL RESEARCH SERVICES AND DEVELOPMENT LTD., priority 2022, published 2024).
Blank lines part the entries; values can stand above or below the molecule they belong to. No end group written: not given here.

Columns and labels:
LX2 cells [1] = experiment: αSMA in LX2 cells co-cultured with peptide pre-activated NK cells, flow cytometry; type: cell-based, human
Description: (§1) Cells: primary NK cells were isolated from patients having advanced fibrosis, human hepatic stellate cells (LX2) were commercially purchased.
Co-culture conditions: co-cultures conditions—peptides were supplemented to media of cultured NK cells for 6 h stimulation followed by a wash, trypsinization, and coculturing on LX2 cells for an additional 24 h.
(§2) Fluorescence-activated cell sorting (FACS): Staining colors of antibodies was as follows: αSMA>PE, CD107>FITC, CD56>. After analysis using LSR Fortessa analyzer, raw data was transferred to analysis program FCS Express v7.0.
To test if NLGn4-Nrx1β PPI inhibitory peptides mediated deactivation of LX2 cells is more prominent in the presence of NK cells, a co-culture setting was established for LX2 cells in the presence or absence of activated NK cells (FIGS. 4A-C).
In this setting, NK cells were stimulated with increasing concentrations of NLGn4-Nrx1βPPI inhibitory peptides before co-culturing them with LX2 cells, to examine whether pre-activation makes them more functional in deactivating LX2 cells.

LX2 cells [2] = experiment: LX2 cell activity (αSMA) in monoculture, flow cytometry; type: cell-based, human; conditions: monoculture, 2000, 4000, 8000 ng/ml (peptide 3: 2000 or 4000 ng/ml), vs untreated
From the text: (§3) Inhibitory Peptide synthesis: inhibitory peptide 1: MEQGEFLNYD (SEQ ID NO: 1), inhibitory peptide 2: QILMEQGEFLNYDIM (SEQ ID NO: 2), inhibitory peptide 3: […] (SEQ ID NO: 3), and a control peptide having a scrambled sequence: LEGEDQNFYM (SEQ ID NO: 7) were synthesized by Pepscan Ltd. at a purity of 98.3%.
as §1, §2
Following that, the NLGn4-Nrx1β PPI peptides were screened for their effect on the activity of LX2 cells, which was evaluated by measuring the levels of αSMA activation marker. Monocultures of LX2 cells were stimulated with increasing concentrations of the NLGn4-Nrx1βPPI peptides (FIGS. 3A-C).

NK cells = experiment: NK cell activation (CD107a) in monoculture, flow cytometry; type: cell-based, human
From the text: as §3, §1
Monoculture conditions: peptides were supplemented to media of cultured NK cells for 6 h stimulation.
as §2
Three peptides potentially having an inhibitory effect on NLGn4-Nrx1β PPI were generated. The three peptides (peptide 1, peptide 2, and peptide 3) consist of different amino acid sequences (SEQ ID NO: 1, SEQ ID NO: 2, and SEQ ID NO: 3, respectively) that vary in length, all derived from the same binding site for the NLGn4X ligand β-neurexin. The active binding site includes a domain containing the amino acids 359-364 in NLGn4X and the epitopes critical for binding are E361, L363, H267, Y463, and E270.
Initially, peptides were screened for their effect on the activity of NK cells, which was evaluated by measuring the levels of CD107a activation marker. Monocultures of NK cells were stimulated with increasing concentrations of the potentially inhibitory NLGn4-Nrx1β PPI peptides (FIG. 1 and FIGS. 2A-B).

liver NK cells = experiment: F-actin expression in liver NK cells (western blot, immunofluorescence) in CCl4 model; type: in vivo, mice; conditions: immune-stained liver tissue, confocal microscopy
Description: Animal model: 40 WT naïve C57BL/6J male mice (12 weeks) were either induced for acute hepatic fibrosis by i.p injections of 0.5 μl pure carbon tetrachloride CCl4/g body weight (one to nine dilution in mineral oil) (CCl4; Sigma, C-5331) 3×/week for four weeks as an advanced model of hepatic fibrosis, or left untreated (induced n=32, control n=8 per experiment). NLGn4-Nrx1β PPI modulator peptide 1 was i.p injected to CCl4 induced mice as preventive doses from the beginning of the model starting at 1st week of CCl4 at a concentration of 5 and 10 mg/mice 3×/week for four weeks (5 mg/mice n=8, 10 mg/mice n=8). […] Food and water intake were recorded every week. […]
Western blot analysis: Liver protein extracts were homogenized with buffer (50 mmol/L Tris-HCl [pH 7.61, 0.25% Triton-X 100, 0.15 M NaCl, 10 mM CaCl2) and complete mini EDTA-free protease inhibitor cocktail (Roche Diagnostics, Mannheim, Germany). […] Immunoreactivity was detected using an ECL kit (Abcam).
Immunofluorescence staining: For deparaffinization, paraffin-embedded sections were placed at 60° C. for 15 minutes, incubated in xylene at room temperature for 15 minutes, and then transferred sequentially to 100% EtOH, 95% EtOH, 70% EtOH, and 50% EtOH for four minutes each at room temperature. […] An argon laser (488 nm excitation) was used to detect green fluorescence, and an Alexa Fluor laser (552 nm) to detect red fluorescence. […]

Hep3B cells = experiment: Cell cycle analysis of Hep3B cells by flow cytometry, PI staining; type: cell-based, human; conditions: 8000 ng/ml
Description: Cell cycle analysis by Flow cytometry: evaluation of cell cycle stage of Hep3B HCC cells, was performed according to a standard protocol, using Propidium-Iodide (PI)-staining of nuclei. To […] attenuation of the proliferative capabilities of HCC cells following modulation by peptide 1, the stage of the cell cycle of Hep3B cells treated with 8000 ng/ml peptide 1 or with a control peptide having a scrambled sequence was evaluate using flow cytometry and Propidium Iodide (PI)-staining.

[3] = system: CCl4-induced mice (acute hepatic fibrosis model); experiment: Liver histology (H&E, Sirius Red, Masson's trichrome) in CCl4 model; type: in vivo; conditions: 5 or 10 mg/mice i.p. 3×/week for 4 weeks
Description: (§4) Animal model: 40 WT naïve C57BL/6J male mice (12 weeks) were either induced for acute hepatic fibrosis by i.p injections of 0.5 μl pure carbon tetrachloride CCl4/g body weight (one to nine dilution in mineral oil) (CCl4; Sigma, C-5331) 3×/week for four weeks as an advanced model of hepatic fibrosis, or left untreated (induced n=32, control n=8 per experiment). NLGn4-Nrx1β PPI modulator peptide 1 was i.p injected to CCl4 induced mice as preventive doses from the beginning of the model starting at 1st week of CCl4 at a concentration of 5 and 10 mg/mice 3×/week for four weeks (5 mg/mice n=8, 10 mg/mice n=8). A scrambled peptide was also i.p injected to CCl4 induced mice (5 mg/mice n=8, 10 mg/mice n=8). Food and water intake were recorded every week. Mice were sacrificed two days after the final CCl4 injection. To this end, the animals were weighed and anesthetized with inhaled 5% isoflurane for 10 seconds before cervical dislocation.
(§5) Histological and biochemical assessment of mice livers: The posterior one-third of the liver was fixed in 4% formalin for 24 hours and then paraffin-embedded in an automated tissue processor. […] Serum ALT concentrations were determined using ELISA. […]

β-neurexin = β-neurexin expression in liver by RT-PCR in CCl4 model; type: in vivo; conditions: relative to naïve mice, 5 or 10 mg/mice i.p. 3×/week for 4 weeks
[4] = system: CCl4-induced mice (acute hepatic fibrosis model); experiment: Serum ALT by ELISA in CCl4 model; type: in vivo; conditions: 5 or 10 mg/mice i.p. 3×/week for 4 weeks
Description: as §4, §5

[5] = target: neurexin 1β (Nrx1β) expressed on Hep3B hepatocellular carcinoma cells (human, UniProt Q9ULB1-3 31-1547); experiment: cell-based or functional assay
Chain of neurexin 1β (Nrx1β) expressed on Hep3B hepatocellular carcinoma cells (Q9ULB1 other isoform, or with tags, fused parts or gaps limits assumed): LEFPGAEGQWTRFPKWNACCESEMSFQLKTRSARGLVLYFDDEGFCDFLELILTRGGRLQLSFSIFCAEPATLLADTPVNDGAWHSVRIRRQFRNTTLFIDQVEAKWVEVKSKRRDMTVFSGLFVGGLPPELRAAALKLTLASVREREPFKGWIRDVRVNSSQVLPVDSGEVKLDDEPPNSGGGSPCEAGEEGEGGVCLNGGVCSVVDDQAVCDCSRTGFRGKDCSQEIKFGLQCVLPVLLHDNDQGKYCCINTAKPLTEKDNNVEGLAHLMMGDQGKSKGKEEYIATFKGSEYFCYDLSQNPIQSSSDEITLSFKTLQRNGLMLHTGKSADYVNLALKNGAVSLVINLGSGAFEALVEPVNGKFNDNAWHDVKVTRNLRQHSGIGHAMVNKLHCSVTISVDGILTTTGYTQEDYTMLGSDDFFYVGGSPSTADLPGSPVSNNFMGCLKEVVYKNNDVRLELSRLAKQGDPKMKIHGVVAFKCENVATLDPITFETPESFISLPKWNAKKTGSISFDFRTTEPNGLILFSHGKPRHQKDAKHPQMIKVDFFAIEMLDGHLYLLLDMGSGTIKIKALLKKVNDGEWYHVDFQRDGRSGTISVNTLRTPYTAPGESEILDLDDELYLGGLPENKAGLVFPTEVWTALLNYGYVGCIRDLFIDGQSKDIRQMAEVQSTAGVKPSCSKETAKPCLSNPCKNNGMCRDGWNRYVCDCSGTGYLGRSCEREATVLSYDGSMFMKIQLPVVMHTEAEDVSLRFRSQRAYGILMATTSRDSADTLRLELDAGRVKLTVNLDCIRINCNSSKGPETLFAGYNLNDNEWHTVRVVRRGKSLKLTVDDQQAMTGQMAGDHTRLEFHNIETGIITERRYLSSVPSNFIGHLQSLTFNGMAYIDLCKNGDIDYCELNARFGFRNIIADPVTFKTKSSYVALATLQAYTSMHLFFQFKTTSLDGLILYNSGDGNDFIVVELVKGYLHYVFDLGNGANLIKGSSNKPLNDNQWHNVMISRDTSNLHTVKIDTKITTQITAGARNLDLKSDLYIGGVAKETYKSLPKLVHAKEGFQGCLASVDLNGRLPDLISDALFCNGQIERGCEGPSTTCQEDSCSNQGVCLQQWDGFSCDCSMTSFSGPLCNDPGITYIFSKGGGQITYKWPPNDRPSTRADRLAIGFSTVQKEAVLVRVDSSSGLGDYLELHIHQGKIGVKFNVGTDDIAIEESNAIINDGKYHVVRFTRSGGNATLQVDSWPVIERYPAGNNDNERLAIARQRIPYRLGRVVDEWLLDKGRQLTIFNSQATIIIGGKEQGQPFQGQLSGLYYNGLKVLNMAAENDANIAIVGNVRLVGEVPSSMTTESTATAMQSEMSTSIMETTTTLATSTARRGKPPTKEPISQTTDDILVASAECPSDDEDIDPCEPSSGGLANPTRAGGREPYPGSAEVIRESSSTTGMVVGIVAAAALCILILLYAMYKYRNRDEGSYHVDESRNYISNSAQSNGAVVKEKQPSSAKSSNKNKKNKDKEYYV

Molecule: QILMEQGEFLNYDIM [peptide 2]
- dose dependence of effect in co-culture (αSMA) (LX2 cells [1]; NK cells pre-activated with increasing concentrations): not dose-dependent
- activity of LX2 cells (levels of αSMA) in co-culture with pre-activated NK cells (LX2 cells [1]; NK cells pre-stimulated 6 h with 2000-8000 ng/ml peptide, co-culture 24 h): downregulated the activity of the LX2 cells
- activity of LX2 cells (levels of αSMA) (LX2 cells [2]): deactivation of the cells
- activity of NK cells (levels of CD107a) (NK cells; monoculture, 6 h stimulation, 2000, 4000, 8000 ng/ml (peptide 3: 2000 or 4000 ng/ml), vs untreated): elevated the activity of the cells
- dose dependence of effect on NK cell activity (CD107a) (NK cells; monoculture, increasing concentrations 2000-8000 ng/ml): not dose-dependent

Molecule: DPQILMEQGEFLNYDIMLGV [peptide 3]
- toxicity to NK cells (NK cells; inferred from CD107a decrease at higher peptide concentrations): may be toxic to the cells

Molecule: LEGEDQNFYM [scrambled peptide]
- F-actin inside NK cells, co-localization with NKP46 (immunofluorescence) (liver NK cells): not seen inside NK cells
- percentage of cells existing at a state of G1 (Hep3B cells): 38%
- percentage of cells existing at a state of G2-M phase (Hep3B cells): 25%
- percentage of cells existing at a state of S-phase (Hep3B cells): 11%
- collagen deposition / fibrous dense tissue (Sirius Red staining) [3]: increased collagen deposition in perisinusoidal areas
- levels of β-neurexin in liver (β-neurexin): elevated levels of β-neurexin
- levels of serum ALT [4]: significant increase in ALT levels

- apoptotic marker phosphatidylserine (Annexin-V+/PI-) in Hep3B cells (flow cytometry), peptide 1 against scrambled control peptide [5]: 3 fold increase
- expression of PDGFRA and MKI67 proliferation markers in Hep3B cells (flow cytometry), peptide 1 against scrambled control peptide [5]: ~2 fold reduction
- percentage of Hep3B cells in G1 phase (PI staining, flow cytometry), 8000 ng/ml peptide 1 against scrambled control peptide [5]: ~2 fold increase
- percentage of Hep3B cells in G2-M phase (PI staining, flow cytometry), 8000 ng/ml peptide 1 against scrambled control peptide [5]: 2.5 fold decrease
- percentage of Hep3B cells in S-phase (PI staining, flow cytometry), 8000 ng/ml peptide 1 against scrambled control peptide [5]: ~2 fold decrease
- phosphorylated AKT/mTOR/P70S6K in Hep3B cells (flow cytometry), peptide 1 against scrambled control peptide [5]: 2 fold reduction
Molecule: MEQGEFLNYD [NLGn4-Nrx1β PPI inhibitory peptide 1]
- expression of the necrotic marker CDNK2A in Hep3B cells (flow cytometry), peptide 1 against scrambled control peptide [5]: 2 fold reduction
